Results as given in US20090131337A1, “HAIR GROWTH COMPOSITION” (AJINOMOTO CO. INC, priority 2006, published 2009).

Key:
hair papilla cells = assay: Hair papilla cell proliferation test (MTT method); type: cell-based; details: concentration used 100 · mol/L; 2 days culture; DMEM with 1% FCS; medium free of hair growth components = 100
Procedure: (1) Using a proliferation medium PCGM: Papilla Cell Growth Medium (purchased from TOYOBO CO., LTD., TPGM-250), hair papilla cells were plated to a cell seeding density of 1.0×10^4 cells/well in a 96 well plate.
(§1) (2) After culturing at 37° C. in a 5% carbon dioxide gas (CO2) atmosphere for one day, the medium was removed, and the cells were washed with an evaluation medium used for cell proliferation tests, i.e., DMEM (Dulbecco's Modified Eagle's Medium) medium containing 1% FCS (fetal bovine serum). Then, various test components were dissolved in a similar evaluation medium and added to various concentrations (* mol/l).
(3) Subsequently, the cells were further cultured at 37° C. in a 5% carbon dioxide gas (CO2) atmosphere for 2 days, and the hair papilla cell proliferation rate was measured by the MTT method.
(§2) (4) The relative evaluation value was calculated based on the rate obtained using a medium free of various hair growth components as 100, and the value was taken as the proliferation rate.

[1] = test system: human epidermal keratinocytes; assay: Human epidermal keratinocyte proliferation test (MTT method, MCDB153 medium); type: cell-based; details: concentration used 50 · mol/L, 2 days culture, medium free of hair growth components = 100
Procedure: (1) Using a serum-free proliferation medium HuMedia-KB2 (purchased from KURABO INDUSTRIES LTD., KK-2350S) added with a proliferation additive HuMedia-KG (purchased from KURABO INDUSTRIES LTD., KK-6150), human epidermal keratinocytes were plated to a cell seeding density of 2.0×10^4 cells/well in a 96 well plate.
as §1, with “MCDB153 medium.” for “DMEM (Dulbecco's Modified Eagle's Medium) medium containing 1% FCS (fetal bovine serum).”
(3) Subsequently, the cells were further cultured at 37° C. in a 5% carbon dioxide gas (CO2) atmosphere for 2 days, and the human epidermal keratinocyte proliferation rate was measured by the MTT method.
as §2

[2] = Solubility of glutamyllysine powder in solvents; type: physicochemical

SMILES | hair papilla cell proliferation rate (%) (hair papilla cells) | keratinocyte proliferation rate (%) [1] | solubility in alkaline water, acidic water ([2]; alkaline water, acidic water and the like) | solubility in organic solvents ([2]; various organic solvents such as methanol, ethanol, acetone)
Nc1cc(N2CCCCC2)nc(N)[n+]1[O-] [minoxidil] | 113% | 117% |  | 
Nc1ncnc2c1ncn2[C@@H]1O[C@H](CO)[C@@H](O)[C@H]1O [adenosine] | 99% | 118% |  | 
NC(CCCCNC(=O)CCC(N)C(=O)O)C(=O)O (centres unmarked) [glutamyllysine, Epsilon-N-(gamma-glutamyl)lysine] | 124% | 131% | soluble | hardly soluble or insoluble
